Patent US8741934B2, “Inhibitors of ion channels” (Pfizer Limited, priority 2007, dated 2014)
Where two headings read alike, the source gives them in different places.

Target: T1, hSCN3A sodium channels (Homo sapiens, UniProt Q9NY46)
T1 construct: expressed in transfected cells
Experiment: hSCN3A electrophysiology, whole-cell patch-clamp or PatchXpress 7000, estimated IC-50 (Table B)
Format: cell-based
Conditions: read-out: SCN3A EIC-50
Procedure, shortened: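 A 20 msec test pulse to 0 mV followed an 8 sec conditioning prepulse at each cell's measured V1/2. Room-temperature (22-24° C) recordings on HEK cells stably expressing the channel, conventional or PatchXpress.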

[1] = estimated IC-50, hSCN3A cells, whole-cell patch-clamp or PatchXpress 7000

T1 sequence (Q9NY46 whole entry): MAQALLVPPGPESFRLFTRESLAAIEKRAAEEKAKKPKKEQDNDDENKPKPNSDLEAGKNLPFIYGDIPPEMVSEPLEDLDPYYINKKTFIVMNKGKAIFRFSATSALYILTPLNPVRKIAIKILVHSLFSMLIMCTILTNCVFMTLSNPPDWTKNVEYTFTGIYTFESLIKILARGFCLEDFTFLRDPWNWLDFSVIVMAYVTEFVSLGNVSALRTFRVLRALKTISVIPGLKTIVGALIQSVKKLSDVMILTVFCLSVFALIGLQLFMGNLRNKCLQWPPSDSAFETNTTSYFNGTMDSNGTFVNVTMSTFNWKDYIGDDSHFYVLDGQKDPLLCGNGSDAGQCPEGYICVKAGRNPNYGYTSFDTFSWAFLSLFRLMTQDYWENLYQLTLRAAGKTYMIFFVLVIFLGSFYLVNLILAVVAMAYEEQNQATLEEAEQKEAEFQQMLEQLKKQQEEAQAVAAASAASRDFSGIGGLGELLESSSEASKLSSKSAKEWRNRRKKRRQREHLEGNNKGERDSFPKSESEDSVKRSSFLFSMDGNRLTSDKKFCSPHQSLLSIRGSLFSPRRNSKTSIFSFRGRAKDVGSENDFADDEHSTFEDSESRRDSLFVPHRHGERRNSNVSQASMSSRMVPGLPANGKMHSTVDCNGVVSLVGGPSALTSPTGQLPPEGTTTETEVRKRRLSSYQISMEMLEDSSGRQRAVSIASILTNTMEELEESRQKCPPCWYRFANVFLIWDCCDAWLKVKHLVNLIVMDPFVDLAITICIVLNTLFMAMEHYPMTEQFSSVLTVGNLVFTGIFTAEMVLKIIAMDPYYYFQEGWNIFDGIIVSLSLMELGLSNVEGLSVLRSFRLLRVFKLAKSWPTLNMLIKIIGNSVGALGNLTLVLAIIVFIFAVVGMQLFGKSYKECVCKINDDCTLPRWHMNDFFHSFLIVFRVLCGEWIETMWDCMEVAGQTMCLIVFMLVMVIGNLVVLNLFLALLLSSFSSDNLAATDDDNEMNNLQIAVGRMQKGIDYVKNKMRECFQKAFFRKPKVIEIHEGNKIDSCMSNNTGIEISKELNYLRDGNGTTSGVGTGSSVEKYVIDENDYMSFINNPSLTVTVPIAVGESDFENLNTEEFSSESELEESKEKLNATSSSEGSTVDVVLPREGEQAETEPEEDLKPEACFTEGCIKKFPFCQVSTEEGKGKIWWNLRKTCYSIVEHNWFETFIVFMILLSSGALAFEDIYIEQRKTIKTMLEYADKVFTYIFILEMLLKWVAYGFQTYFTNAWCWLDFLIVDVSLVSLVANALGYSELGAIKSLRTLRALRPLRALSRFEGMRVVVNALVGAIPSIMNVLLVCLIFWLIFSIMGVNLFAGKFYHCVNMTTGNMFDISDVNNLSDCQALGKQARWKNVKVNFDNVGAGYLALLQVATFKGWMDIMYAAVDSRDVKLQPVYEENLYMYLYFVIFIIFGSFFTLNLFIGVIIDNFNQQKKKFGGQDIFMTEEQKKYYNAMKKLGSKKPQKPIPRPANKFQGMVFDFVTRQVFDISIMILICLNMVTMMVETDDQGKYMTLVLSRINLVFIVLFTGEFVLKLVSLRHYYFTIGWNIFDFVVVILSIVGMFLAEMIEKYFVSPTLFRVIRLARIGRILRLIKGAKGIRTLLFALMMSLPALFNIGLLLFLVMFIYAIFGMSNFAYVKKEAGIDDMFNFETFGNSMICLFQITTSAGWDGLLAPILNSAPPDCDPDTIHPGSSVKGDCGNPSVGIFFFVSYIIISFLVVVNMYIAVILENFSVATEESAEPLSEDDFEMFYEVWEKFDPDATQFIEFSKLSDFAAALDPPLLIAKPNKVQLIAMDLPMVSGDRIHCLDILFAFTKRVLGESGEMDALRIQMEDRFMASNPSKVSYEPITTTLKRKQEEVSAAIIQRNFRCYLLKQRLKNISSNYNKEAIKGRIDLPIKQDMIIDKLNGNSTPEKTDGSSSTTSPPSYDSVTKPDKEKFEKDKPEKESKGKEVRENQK

SMILES | IC50 [1] [µM] | IC50 [µM]
O=C(c1ccc(S(=O)(=O)Nc2nccs2)cc1)N1CCOC(COc2ccc(F)cc2Cl)C1 (centres unmarked) [Example 266, 4-({2-[(2-Chloro-4-fluorophenoxy)methyl]morpholin-4-yl}carbonyl)-N-1,3-thiazol-2-ylbenzenesulfonamide] | 1.67 | –
O=C(NCc1ccc(Cl)cc1Cl)c1ccc(S(=O)(=O)Nc2nccs2)cc1 [Example 413, N-(24-dichlorobenzyl)-4-[(1,3-thiazol-2-ylamino)sulfonyl] benzamide] | 0.18 | –
O=C(NCc1ccc(C(F)(F)F)c(F)c1)c1ccc(S(=O)(=O)Nc2ncns2)cc1Cl [Example 375, 2-Chloro-N-[3-fluoro-4-(trifluoromethyl)benzyl]-4-[(1,2,4-thiadiazol-5-ylamino)sulfonyl]benzamide] | 0.45 | –
O=C(NCc1ccc(C(F)(F)F)cc1)c1ccc(S(=O)(=O)Nc2ncc(Cl)s2)cn1 [Example 344, 5-{[(5-Chloro-1,3-thiazol-2-yl)amino]sulfonyl}-N-[4-(trifluoromethyl)benzyl]pyridine-2-carboxamide] | 0.52 | –
O=C(NCc1ccc(C(F)(F)F)cc1)c1ccc(S(=O)(=O)Nc2ccon2)cc1 [Example 7, 4-[(Isoxazol-3-ylamino)sulfonyl]-N-[4-(trifluoromethyl)benzyl]benzamide] | 5.87 | –
O=C(NCc1ccc(F)c(Cl)c1)c1ccc(S(=O)(=O)Nc2nccs2)c(F)c1 [Example 299, N-(3-chloro-4-fluorobenzyl)-3-fluoro-4-[(1,3-thiazol-2-yl-amino)sulfonyl]benzamide] | 0.11 | –
O=C(NCc1ccc(C(F)(F)F)c(Cl)c1)c1ccc(S(=O)(=O)Nc2ncns2)cc1Cl [Example 374, 2-Chloro-N-[3-chloro-4-(trifluoromethyl)benzyl]-4-[(1,2,4-thiadiazol-5-ylamino)sulfonyl]benzamide] | 0.23 | –
O=C(NCc1ccc(C(F)(F)F)c(Cl)c1)c1ccc(S(=O)(=O)Nc2nccs2)cn1 [Example 341, N-[3-chloro-4-(trifluoromethyl)benzyl]-5-[(1,3-thiazol-2-ylamino)sulfonyl] pyridine-2-carboxamide] | – | 0.19
CC(C)(C)c1ccc(CNC(=O)c2ccc(S(=O)(=O)Nc3nccs3)cc2)cc1 [Example 387, N-(4-tert-butylbenzyl)-4-[(1,3-thiazol-2-ylamino)sulfonyl]benzamide] | 0.17 | –
O=C(NCc1cccc(C(F)(F)F)c1)c1ccc(S(=O)(=O)Nc2nccs2)cc1F [Example 327, 2-Fluoro-4-[(1,3-thiazol-2-ylamino)sulfonyl]-N-[3-(trifluoromethyl)benzyl]benzamide] | 0.26 | –
CC(C)(NC(=O)c1ccc(S(=O)(=O)Nc2nccs2)cc1)c1ccc(C(F)(F)F)cc1 [Example 123, N-{1-methyl-1-[4-(trifluoromethyl)phenyl]ethyl}-4-[(1,3-thiazol-2-ylamino)sulfonyl]benzamide] | 1.44 | –
O=C(NCc1cccc(-n2cccn2)c1)c1ccc(S(=O)(=O)Nc2nccs2)cc1 [Example 59, N-[3-(1H-pyrazol-1-yl)benzyl]-4-[(1,3-thiazol-2-ylamino)sulfonyl]benzamide] | 1.69 | –
O=C(NC1CCc2ccccc21)c1ccc(S(=O)(=O)Nc2nccs2)cc1 (centres unmarked) [Example 158, N-(2,3-dihydro-1H-inden-1-yl)-4-[(1,3-thiazol-2-ylamino)sulfonyl]benzamide] | 2.39 | –
O=C(NCc1ccc(F)c(F)c1)c1ccc(S(=O)(=O)Nc2ncc(Cl)s2)c(F)c1 [Example 312, 4-{[(5-Chloro-1,3-thiazol-2-yl)amino]sulfonyl}-N-(3,4-difluorobenzyl)-3-fluorobenzamide] | 0.14 | –
O=C(NCc1ccc(C(F)(F)F)cc1)c1ccc(S(=O)(=O)Nc2nncs2)cc1 [Example 21, 4-[(1,3,4-Thiadiazol-2-ylamino)sulfonyl]-N-[4-(trifluoromethyl)benzyl]benzamide] | 1.97 | –
O=C(NCc1ccc(OC(F)(F)F)cc1)c1ccc(S(=O)(=O)Nc2nccs2)cc1F [Example 330, 2-Fluoro-4-[(1,3-thiazol-2-ylamino)sulfonyl]-N-[4-(trifluoromethoxy)benzyl]benzamide] | 0.13 | –
O=C(NCc1ccc(OC(F)(F)F)cc1)c1ccc(S(=O)(=O)Nc2ncc(Cl)s2)cc1 [Example 45, 4-{[(5-Chloro-1,3-thiazol-2-yl)amino]sulfonyl}-N-[4-(trifluoromethoxy)benzyl]benzamide] | 0.07 | –
O=C(NCc1ccccc1OC(F)(F)F)c1ccc(S(=O)(=O)Nc2nccs2)cc1 [Example 78, 4-[(1,3-Thiazol-2-ylamino)sulfonyl]-N-[2-(trifluoromethoxy)benzyl]benzamide] | 1.63 | –
O=C(NCc1ccc(F)c(C(F)(F)F)c1)c1ccc(S(=O)(=O)Nc2ncc(Cl)s2)c(Cl)c1 [Example 370, 3-Chloro-4-{[(5-chloro-1,3-thiazol-2-yl)amino]sulfonyl}-N-[4-fluoro-3-(trifluoromethyl)benzyl]benzamide] | 1.22 | –
CC(C)(NC(=O)c1ccc(S(=O)(=O)Nc2nccs2)cc1)c1ccc(Cl)cc1 [Example 124, N-[1-(4-chlorophenyl)-1-methylethyl]-4-[(1,3-thiazol-2-ylamino)sulfonyl]benzamide] | 1.81 | –
O=C(NCc1ccc(C(F)(F)F)cc1F)c1ccc(S(=O)(=O)Nc2ncc(Cl)s2)cc1 [Example 39, 4-{[(5-Chloro-1,3-thiazol-2-yl)amino]sulfonyl}-N-[2-fluoro-4-(trifluoromethyl)benzyl]benzamide] | 0.12 | –
O=C(NCCc1ccc(Cl)cc1)c1ccc(S(=O)(=O)Nc2nccs2)cc1 [Example 72, N-[2-(4-chlorophenyl)ethyl]-4-[(1,3-thiazol-2-ylamino)sulfonyl]benzamide] | 0.66 | –
O=C(NCc1ccc(C(F)(F)F)cc1)c1ccc(S(=O)(=O)Nc2ccn[nH]2)cc1 [Example 24, 4-[(1H-Pyrazol-5-ylamino)sulfonyl]-N-[4-(trifluoromethyl)benzyl]benzamide] | > 10 | –
O=C(NCc1ccc(Cl)cc1F)c1ccc(S(=O)(=O)Nc2nccs2)cc1 [Example 93, N-(4-chloro-2-fluorobenzyl)-4-[(1,3-thiazol-2-ylamino)sulfonyl]benzamide] | 0.46 | –
O=C(NCc1ccc(F)c(OC(F)(F)F)c1)c1ccc(S(=O)(=O)Nc2ncc(Cl)s2)c(F)c1 [Example 313, 4-{[(5-Chloro-1,3-thiazol-2-yl)amino]sulfonyl}-3-fluoro-N-[4-fluoro-3-(trifluoromethoxy)benzyl]benzamide] | 0.16 | –
O=C(NCc1ccc(C(F)(F)F)c(F)c1)c1ccc(S(=O)(=O)Nc2ncc(Cl)s2)cc1 [Example 31, 4-{[(5-Chloro-1,3-thiazol-2-yl)amino]sulfonyl}-N-[3-fluoro-4-(trifluoromethyl)benzyl]benzamide] | 0.07 | –
O=C(NCc1ccc(Oc2ccccc2)cc1)c1ccc(S(=O)(=O)Nc2nccs2)cc1 [Example 409, N-(4-phenoxybenzyl)-4-[(1,3-thiazol-2-ylamino)sulfonyl] benzamide] | 0.04 | –
O=C(c1ccc(S(=O)(=O)Nc2nccs2)cc1)N1CCC(c2ccccc2)C1 (centres unmarked) [Example 191, 4-[(3-Phenylpyrrolidin-1-yl)carbonyl]-N-1,3-thiazol-2-yl-benzenesulfonamide] | 2.25 | –
O=C(c1ccc(S(=O)(=O)Nc2nccs2)cc1)N1CCCC(Cc2cccc(F)c2)C1 (centres unmarked) [Example 47, 4-{[3-(3-Fluorobenzyl)piperidin-1-yl]carbonyl}-N-1,3-thiazol-2-ylbenzenesulfonamide] | 0.92 | –
